Ten compounds from patent US20260022143A1, “Cyclic Peptide Inhibitors of IL-23” (JANSSEN PHARMACEUTICA NV, priority 2022, published 2026) can be followed below.

Each structure is given as a SMILES string. Structures can show the parent of a compound that is named as a salt. Positions of bridges follow the written chain, without caps; N, C: chain ends. Non-standard residues stand in square brackets, D forms with d. Residues, ends and D or L forms follow the SMILES beside them. Groups on a side chain read outwards from the residue. *: point of attachment. Ala(1-Me-3-pyridinium) = C[n+]1cccc(C[C@H](N)C(=O)O)c1; PEG12 = NCCOCCOCCOCCOCCOCCOCCOCCOCCOCCOCCOCCOCCC(=O)O; Trp(7-Me) = Cc1cccc2c(C[C@H](N)C(=O)O)c[nH]c12; PEG9 = NCCOCCOCCOCCOCCOCCOCCOCCOCCOCCC(=O)O; Dab(NMeAc) = CC(=O)N(C)CC[C@H](N)C(=O)O; Ac6c(4,4-F2) = NC1(C(=O)O)CCC(F)(F)CC1; 2Nal = N[C@@H](Cc1ccc2ccccc2c1)C(=O)O; AEF = NCCOc1ccc(C[C@H](N)C(=O)O)cc1; dNMeY = CN[C@H](Cc1ccc(O)cc1)C(=O)O; PEG6 = NCCOCCOCCOCCOCCOCCOCCC(=O)O; 3Pal = N[C@@H](Cc1cccnc1)C(=O)O; d3Pal = N[C@H](Cc1cccnc1)C(=O)O; Pen = CC(C)(S)[C@H](N)C(=O)O; αMeK = C[C@](N)(CCCCN)C(=O)O; Thp = NC1(C(=O)O)CCOCC1; Tfa = O=C(C(F)(F)F)*; Sar = CNCC(=O)O; X2 = CNCC*

The nature of this data set: Exposed Polar Surface Area (EPSA). It counts as physicochemical. Conditions: SFC on Chirex 3014 column; sample 1 mM DMSO stock; read-out: EPSA. Summed up: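 Retention-based polarity: supercritical CO2 with 20 mM ammonium formate in MeOH (5–60%, 20%/min), Chirex 3014 column, 35 °C. Calibrated against 8 standards to give EPSA (Å^2); each sample measured twice.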
Consider `CC(=O)NCCCC[C@@H]1NC(=O)[C@H](Cc2c[nH]c3c(C)cccc23)NC(=O)[C@H]([C@@H](C)O)NC(=O)[C@H](CC(N)=O)NC(=O)[C@@H](NC(C)=O)C(C)(C)SSC(C)(C)[C@@H](C(=O)N[C@@H](Cc2ccc(OCCN)cc2)C(=O)N[C@@H](Cc2ccc3ccccc3c2)C(=O)N[C@@](C)(CCCCN)C(=O)N[C@@H](CCCCNC(C)=O)C(=O)N[C@@H](CC(N)=O)C(=O)N[C@H](Cc2cccnc2)C(=O)N(C)[C@H](Cc2ccc(O)cc2)C(N)=O)NC1=O` [compound 32, MeCO-Pen(3)-N-T-7MeW-K(Ac)-Pen(3)-AEF-2Nal-aMeK-K(ac)-N-3pya-NMeDTyr-CONH2] (Ac-[Pen]NT[Trp(7-Me)]K(Ac)[Pen][AEF][2Nal][αMeK]K(Ac)N[d3Pal][dNMeY]-NH2; disulfide 1-6), for which the EPSA came out at 166 A^2.

For `CC(=O)NCCCC[C@@H]1NC(=O)[C@H](Cc2c[nH]c3c(C)cccc23)NC(=O)[C@H]([C@@H](C)O)NC(=O)[C@H](CC(N)=O)NC(=O)[C@@H](NC(=O)[C@@H](CCCNC(=N)N)NC(=O)CCOCCOCCOCCOCCOCCOCCNC(C)=O)C(C)(C)SSC(C)(C)[C@@H](C(=O)N[C@@H](Cc2ccc(OCCN)cc2)C(=O)N[C@@H](Cc2ccc3ccccc3c2)C(=O)NC2(C(=O)N[C@@H](CCC(=O)O)C(=O)N[C@@H](CC(N)=O)C(=O)N[C@@H](Cc3cccnc3)C(=O)N(C)CC(N)=O)CCOCC2)NC1=O` [compound 37] (Ac-[PEG6][dR][Pen]NT[Trp(7-Me)]K(Ac)[Pen][AEF][2Nal][Thp]EN[3Pal][Sar]-NH2; disulfide 3-8 (inferred)), the EPSA was 174 A^2.

On to `CC(=O)NCCCC[C@@H]1NC(=O)[C@H](Cc2c[nH]c3c(C)cccc23)NC(=O)[C@H]([C@@H](C)O)NC(=O)[C@H](CC(N)=O)NC(=O)[C@@H](NC(=O)[C@@H](CCCNC(=N)N)NC(=O)CCOCCOCCOCCOCCOCCOCCOCCOCCOCCOCCOCCOCCNC(C)=O)C(C)(C)SSC(C)(C)[C@@H](C(=O)N[C@@H](Cc2ccc(OCCN)cc2)C(=O)N[C@@H](Cc2ccc3ccccc3c2)C(=O)NC2(C(=O)N[C@@H](CCC(=O)O)C(=O)N[C@@H](CC(N)=O)C(=O)N[C@@H](Cc3cccnc3)C(=O)N(C)CC(N)=O)CCOCC2)NC1=O` [compound 38] (Ac-[PEG12][dR][Pen]NT[Trp(7-Me)]K(Ac)[Pen][AEF][2Nal][Thp]EN[3Pal][Sar]-NH2; disulfide 3-8), for which the EPSA came to 172 A^2.

Turning to `CC(=O)NCCCC[C@@H]1NC(=O)[C@H](Cc2c[nH]c3c(C)cccc23)NC(=O)[C@H]([C@@H](C)O)NC(=O)[C@H](CC(N)=O)NC(=O)[C@@H](NC(=O)[C@@H](CCCCNC(=O)CCOCCOCCOCCOCCOCCOCCOCCOCCOCCOCCOCCOCCNC(C)=O)NC(C)=O)C(C)(C)SSC(C)(C)[C@@H](C(=O)N[C@@H](Cc2ccc(OCCN)cc2)C(=O)N[C@@H](Cc2ccc3ccccc3c2)C(=O)NC2(C(=O)N[C@@H](CCCCNC(C)=O)C(=O)N[C@@H](CC(N)=O)C(=O)N[C@@H](Cc3cccnc3)C(=O)N(C)CC(N)=O)CCOCC2)NC1=O` [compound 40] (Ac-[dK]([PEG12-Ac])[Pen]NT[Trp(7-Me)]K(Ac)[Pen][AEF][2Nal][Thp]K(Ac)N[3Pal][Sar]-NH2; disulfide 2-7), the EPSA amounted to 156 A^2.

With `CC(=O)NCCCC[C@@H]1NC(=O)[C@H](Cc2c[nH]c3c(C)cccc23)NC(=O)[C@H]([C@@H](C)O)NC(=O)[C@H](CC(N)=O)NC(=O)[C@@H](NC(=O)[C@@H](CCCNC(=N)N)NC(=O)CCOCCOCCOCCOCCOCCOCCOCCOCCOCCNC(C)=O)C(C)(C)SSC(C)(C)[C@@H](C(=O)N[C@@H](Cc2ccc(OCCN)cc2)C(=O)N[C@@H](Cc2ccc3ccccc3c2)C(=O)NC2(C(=O)N[C@@H](CCC(=O)O)C(=O)N[C@@H](CC(N)=O)C(=O)N[C@@H](Cc3cccnc3)C(=O)N(C)CC(N)=O)CCOCC2)NC1=O` [compound 43] (Ac-[PEG9][dR][Pen]NT[Trp(7-Me)]K(Ac)[Pen][AEF][2Nal][Thp]EN[3Pal][Sar]-NH2; disulfide 3-8), the EPSA was 173 A^2.

Turning to `CNCCOc1ccc(C[C@H](NC(=O)[C@H]2NC(=O)[C@H](CCCCNC(C)=O)NC(=O)[C@H](Cc3c[nH]c4c(C)cccc34)NC(=O)[C@H]([C@@H](C)O)NC(=O)[C@H](CC(N)=O)NC(=O)[C@@H](NC(C)=O)C(C)(C)SSC2(C)C)C(=O)N[C@@H](Cc2ccc3ccccc3c2)C(=O)NC2(C(=O)N[C@@H](CCCCNC(C)=O)C(=O)N[C@@H](CC(N)=O)C(=O)N[C@@H](Cc3cccnc3)C(=O)N(C)CC(N)=O)CCOCC2)cc1` [compound 47] (Ac-[Pen]NT[Trp(7-Me)]K(Ac)[Pen]Y(X2)[2Nal][Thp]K(Ac)N[3Pal][Sar]-NH2; disulfide 1-6 (inferred)), the EPSA amounted to 154 A^2.

For the compound `CNC(=O)C[C@H](NC(=O)[C@H](CCCCNC(C)=O)NC(=O)C1(NC(=O)[C@H](Cc2ccc3ccccc3c2)NC(=O)[C@H](Cc2ccc(OCCN)cc2)NC(=O)[C@H]2NC(=O)[C@H](CCCCNC(C)=O)NC(=O)[C@H](Cc3c[nH]c4c(C)cccc34)NC(=O)[C@H]([C@@H](C)O)NC(=O)[C@H](CC(N)=O)NC(=O)[C@@H](NC(C)=O)C(C)(C)SSC2(C)C)CCOCC1)C(=O)N[C@@H](Cc1cccnc1)C(=O)N(C)CC(N)=O` [compound 48] (Ac-[Pen]NT[Trp(7-Me)]K(Ac)[Pen][AEF][2Nal][Thp]K(Ac)D(NHMe)[3Pal][Sar]-NH2; disulfide 1-6), the EPSA came to 184 A^2.

As to `CC(=O)NCCCC[C@@H]1NC(=O)[C@H](Cc2c[nH]c3c(C)cccc23)NC(=O)[C@H]([C@@H](C)O)NC(=O)[C@H](CC(N)=O)NC(=O)[C@@H](NC(=O)C(F)(F)F)C(C)(C)SSC(C)(C)[C@@H](C(=O)N[C@@H](Cc2ccc(OCCN)cc2)C(=O)N[C@@H](Cc2ccc3ccccc3c2)C(=O)NC2(C(=O)N[C@@H](CCCCNC(C)=O)C(=O)N[C@@H](CC(N)=O)C(=O)N[C@@H](Cc3cccnc3)C(=O)N(C)CC(N)=O)CCOCC2)NC1=O` [compound 49] (Tfa-[Pen]NT[Trp(7-Me)]K(Ac)[Pen][AEF][2Nal][Thp]K(Ac)N[3Pal][Sar]-NH2; disulfide 1-6), the EPSA amounted to 164 A^2.

Take `CC(=O)NCCCC[C@@H]1NC(=O)[C@H](Cc2c[nH]c3c(C)cccc23)NC(=O)[C@H]([C@@H](C)O)NC(=O)[C@H](CC(N)=O)NC(=O)[C@@H](NC(=O)C(F)(F)F)C(C)(C)SSC(C)(C)[C@@H](C(=O)N[C@@H](Cc2ccc(OCCN)cc2)C(=O)N[C@@H](Cc2ccc3ccccc3c2)C(=O)NC2(C(=O)N[C@@H](CCCCNC(C)=O)C(=O)N[C@@H](CC(N)=O)C(=O)N[C@@H](Cc3cccnc3)C(=O)N(C)CC(N)=O)CCC(F)(F)CC2)NC1=O` [compound 50] (Tfa-[Pen]NT[Trp(7-Me)]K(Ac)[Pen][AEF][2Nal][Ac6c(4,4-F2)]K(Ac)N[3Pal][Sar]-NH2; disulfide 1-6 (inferred)): the EPSA is 162 A^2.

As for `CC(=O)NCCCC[C@H](NC(=O)C1(NC(=O)[C@H](Cc2ccc3ccccc3c2)NC(=O)[C@H](Cc2ccc(OCCN)cc2)NC(=O)[C@H]2NC(=O)[C@H](CCN(C)C(C)=O)NC(=O)[C@H](Cc3c[nH]c4c(C)cccc34)NC(=O)[C@H]([C@@H](C)O)NC(=O)[C@H](CC(N)=O)NC(=O)[C@@H](NC(=O)C(F)(F)F)C(C)(C)SSC2(C)C)CCOCC1)C(=O)N[C@@H](CC(N)=O)C(=O)N[C@@H](Cc1ccc[n+](C)c1)C(=O)N(C)CC(N)=O` [compound 51] (Tfa-[Pen]NT[Trp(7-Me)][Dab(NMeAc)][Pen][AEF][2Nal][Thp]K(Ac)N[Ala(1-Me-3-pyridinium)][Sar]-NH2; disulfide 1-6), the EPSA came to 156 A^2.
